Patent US12144791B2, “KRAS agonists, pharmaceutical compositions, and uses in managing cancer” (Emory University, priority 2019, dated 2024)

Legend:
[1] = system: A549, H157, Calu-1 and H292 cells; assay: Western blot of pERK, apoptosis and autophagy markers in total lysate; format: cell-based, human; conditions: 0, 5, 10, 15 μM, 48 h
Method: “0” means DMSO vehicle control. […] Expression levels of KRAS, pERK, active caspase 3, PARP cleavage, Beclin1, LC3-I and LC3-II in total lysate were analyzed by Western blot.
(§1) Activated KRAS can trigger cell death via apoptosis and autophagy-associated cell death in cancer cells. To test whether KRA-533- activated KRAS promotes apoptosis and autophagic cell death, A549, H157, Calu-1 and H292 cells were treated with increasing concentrations of KRA-533 for 48 h, followed by analysis of KRAS activity, apoptosis and autophagy. […] Autophagy was measured by analysis of LC3-I/LC3-II and p62 following treatment of cells with KRA-533. It is well known that p62 is an autophagy receptor or substrate that can be degraded by autophagy. In addition to LC3-II, p62 was analyzed as another autophagy marker. […] To further quantify the level of autophagy, a GFP-LC3 construct was used to indicate autophagosomes. After treatment with KRA-533, GFP-LC3 redistributed from a diffuse staining pattern in the cytoplasm and nucleus to a cytoplasmic punctate structure that specifically labels pre-autophagosomal and autophagosomal membranes (i.e. GFP-LC3 vac cells). […] These findings indicate that, in addition to apoptosis, KRA-533 can also induce autophagic cell death.

KRAS K117A = molecular target: T1, KRAS K117A (Homo sapiens, UniProt P01116, K117A); assay: Thermal shift assay, purified KRAS K117A; format: binding
T1 construct: made in house
Method: Melting temperature (Tm) values of DMSO control and 15 μM KRA-533 are shown.
To further test this intracellularly, GFP-tagged WT, S17A, K117A and AA KRAS mutants were exogenously transfected into A549 cells. […] Activities of exogenous GFP-tagged WT and KRAS mutants were analyzed by Western blot using GFP antibody.

A549 and H157 cells = assay: Western blot of autophagy marker p62 with or without chloroquine; format: cell-based, human; conditions: 48 h
Method: To assess whether the autophagy inhibitor regulates KRA-533-induced autophagy formation, A549 and H157 cells were treated with KRA-533 in the absence or presence of autophagy inhibitor chloroquine for 48 h, followed by Western blot analysis of the autophagy marker p62.

NSCLC cells = assay: MTS Cell Proliferation Colorimetric Assay; format: cell-based, human; conditions: 48 h
Description: (§2) A library containing small molecules from the National Cancer Institute (NCI) was employed to dock the GTP/GDP binding pocket of KRAS (PDB ID code: 4EPT) using the University of California, San Francisco (UCSF) DOCK 6.1 program suite. The small molecules were ranked according to their energy scores. Top 500 small molecules with predicted binding energies were selected for screening of cytotoxicity in human lung cancer cells by sulforhodamine B (SRB) assay. […] This lead compound was named KRAS agonist-533 (KRA-533) (FIG. 1A). To test whether KRA-533 regulates KRAS activity in lung cancer cells, human lung cancer cell lines with or without KRAS mutation were treated with KRA-533 (10 μM) for 48 h. […] Cell proliferation was also measured following treatment of cells for 48 h using MTS Cell Proliferation Colorimetric Assay Kit.

human lung cancer cells = assay: Screening of cytotoxicity by sulforhodamine B (SRB) assay; format: cell-based; conditions: among top 500 docked NCI small molecules
Description: as §2

KRAS G13D = KRAS G13D (Homo sapiens, UniProt P01116, G13D); assay: Thermal shift assay, purified KRAS G13D; format: binding; conditions: increasing concentrations
Method: Melting temperature (Tm) values of DMSO Ctrl and 15 μM of KRA-533 are shown.
(§3) To test whether KRA-533 directly binds to KRAS, a thermal shift assay was employed. […] To further assess whether KRA-533 activates KRAS directly, an in vitro cell-free GDP-GTP exchange experiment was carried out. Purified WT, G12C, G12D or G13D mutant KRAS proteins were incubated with purified GEF (RASGRP1) and GAP (RASA1) proteins in reaction buffer containing [γ-35S]-GTP in the absence or presence of increasing concentrations of KRA-533 at 25° C. for 60 min. KRAS activity was quantified by liquid scintillation counting. […] These findings indicate that KRA-533 not only activates WT KRAS but also has the capacity to further enhance KRAS activity of mutant KRAS.

KRAS G12C = KRAS G12C (Homo sapiens, UniProt P01116, G12C); assay: In vitro cell-free GDP-GTP exchange, KRAS G12C; format: biochemical; conditions: with GEF (RASGRP1) and GAP (RASA1), 25° C., 60 min
Method: GTPγS, purified GFP (RASGRP1, 180 nM) and GAP (RASA1, 180 nM) at 25° C. in the presence or absence of increasing concentrations of KRA-533.
as §3

[2] = system: G12D mutant KRAS-driven lung cancer; assay: Genetically engineered LSL-KRASG12D mouse lung cancer model; format: in vivo
Description: Tumor numbers were counted under the microscope and tumor area was quantified using modular imaging software.
KRAS mutations are common genetic alterations in NSCLC and contribute to the resistance of lung cancer to conventional therapy. To test the potency of KRA-533 in mutant KRAS-driven lung cancer, lox-stop-lox (LSL)-KRASG12D mice were generated. By engineering LoxP DNA elements into the mouse genome that surround a synthetic ‘stop’ element (lox-stop-lox) inserted in front of mutant KRAS G12D, one can ‘turn-on’ mutant KRAS G12D with delivery of Cre recombinase. To control the expression of KRAS G12D, a LSL cassette was engineered into the first intron of the KRAS gene. The LSL cassette consists of transcriptional and translational stop elements flanked by LoxP sites that prevent the expression of the mutant allele until the stop elements are removed by the activity of Cre recombinase. To produce KRAS G12D mutant-driven lung cancer, alleles were induced in mouse lung using intranasal administration of a lentiviral Cre recombinase. Primary lung tumors developed around 12 weeks post-inoculation.
To assess whether KRA-533 has antitumor activity against G12D mutant KRAS-driven lung cancer in genetically engineered mouse models, KRA-533 (20 mg/kg/d) or vehicle control was administered i.p. starting at 10 weeks post AdeCre delivery. After treatment for 3 months, mice were euthanized for analysis of tumor burden. […] There were 3 deaths out of 8 mice in the control group versus 1 death out of 8 mice in the KRA-533 treatment group in four months before euthanization.

[3] = system: A549, H157, Calu-1 and H292 cells; assay: Apoptosis by FACS analysis of Annexin V/PI staining; format: cell-based, human
Method: as §1

`O=C(CBr)NCCCCc1ccc(C(=O)O)cc1` [KRA-533, 4-(4-(2-bromoacetamido)butyl)benzoic acid] was tested, and the LC3-II [1] was “dose-dependent increase of LC3-II”, the PARP cleavage [1] was “increased” and the “levels of pERK” value [1] was “increased levels”. The p62 [1] was “dose-dependent decrease of p62”, the “ratio of active caspase 3/procaspase 3” value [1] was “increased” and the “binding (thermal shift), KRAS K117A” value (KRAS K117A) was “failed to bind”. The “autophagy marker p62, KRA-533 alone” value (A549 and H157 cells) was “induced autophagy with deceased p62 level via degradation”, the cell proliferation (NSCLC cells; various NSCLC cells) was “suppression of cell proliferation” and the “sensitivity of cell proliferation, KRAS mutant cells versus H292” value (NSCLC cells; A549, H157, Calu-1 vs H292) was “more sensitive to KRA-533 than H292 cells without KRAS mutation”. The “activity against human lung cancer cells (cytotoxicity, SRB assay)” value (human lung cancer cells) was “the most potent activity against human lung cancer cells”, the “melting temperature (Tm) / binding, KRAS G13D” value (KRAS G13D) was “Dose dependent increases in melting temperature (Tm)” and the “KRAS activity (liquid scintillation), KRAS G12C” value (KRAS G12C) was “further enhanced the activities of active KRAS mutants”. The “deaths in four months before euthanization” value ([2]; 20 mg/kg/d i.p.) was 1 death out of 8 mice, the “weight loss and normal tissue toxicity” value ([2]; 20 mg/kg/d i.p.) was “Slight weight loss but no significant normal tissue toxicity” and the “tumor burden and multiplicity in the lung” value ([2]; 20 mg/kg/d i.p. from 10 weeks post AdeCre, four months) was “significant reduction of tumor burden and multiplicity in the lung”. The survival ([2]; 20 mg/kg/d i.p., compared with the control group) was “prolonged survival”, the “apoptotic cell death (Annexin V/PI)” value ([3]; 0, 5, 10, 15 μM, 48 h) was “leading to apoptotic cell death” and the “sensitivity to KRAS activation, induction of apoptosis and autophagy, KRAS mutant cells versus H292” value ([3]; A549, H157 and Calu-1 vs H292, 48 h) was “significantly more sensitive than H292 cells without KRAS mutation”.
